# T1: ADAM10 (Mus musculus, UniProt O35598)
# T1 construct: endogenous in cells; host or cells: MTE 4-14 cells (transformed thymus cells) transfected with Trop-2
# T1 sequence (O35598 215-749): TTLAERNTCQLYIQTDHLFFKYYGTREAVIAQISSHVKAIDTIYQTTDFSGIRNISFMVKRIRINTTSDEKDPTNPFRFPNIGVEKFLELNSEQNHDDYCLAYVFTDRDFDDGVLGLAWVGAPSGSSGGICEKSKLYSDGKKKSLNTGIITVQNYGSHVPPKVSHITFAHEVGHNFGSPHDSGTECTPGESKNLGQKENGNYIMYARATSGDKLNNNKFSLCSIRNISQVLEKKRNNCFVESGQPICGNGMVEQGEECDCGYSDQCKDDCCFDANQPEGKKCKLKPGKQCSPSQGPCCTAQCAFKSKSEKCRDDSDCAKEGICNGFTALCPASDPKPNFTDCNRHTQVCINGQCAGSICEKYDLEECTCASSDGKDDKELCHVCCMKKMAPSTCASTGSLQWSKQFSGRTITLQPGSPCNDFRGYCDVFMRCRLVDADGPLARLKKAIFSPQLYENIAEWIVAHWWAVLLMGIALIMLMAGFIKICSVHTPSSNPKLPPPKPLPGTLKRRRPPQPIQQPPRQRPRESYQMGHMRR
# Columns and labels:
# [1] = test system: metastatic triple-negative breast cancer (TNBC); conditions: cited from earlier work
# [2] = target: T1, ADAM10; test: Western blot of Trop-2 processing after ADAM10 inhibition or silencing in MTE 4-14/Trop-2 transfectants; assay type: cell-based, murine; conditions: for concentration found effective (up to): inhibition of Trop-2 cleavage in cells
# Procedure: ADAM 10 activity was inhibited in the MTE 4-14/Trop-2 transfectants by treatment with chemical inhibitors or mRNA silencing, and the effect on Trop-2 processing and on Trop-2-dependent cell growth was evaluated.
# A. WB analysis following treatment with the broad-spectrum metalloprotease inhibitor GM6001 or with the specific ADAM10 inhibitor G1254023X (Ludwig, Hundhausen et al. 2005) or ADAM10 siRNA silencing, as indicated. […] T2-p: processed Trop-2; na: native form; pr processed form.
# Western blotting was performed as described (El Sewedy, Fomaro et al. 1998). Tumors from experimental animals were rapidly frozen upon surgical removal and stored at −80° C. Frozen samples were quickly thawed and homogenized with a Dounce homogenizer. Cleared homogenates of tumors and cultured cell lysates were analyzed by SDS-PAGE and transferred to nitrocellulose filters. Filters were hybridized with anti-human Trop-2 (affinity-purified polyclonal rabbit antiserum) or anti-ADAM10 antibodies.
# Cells were treated with ADAM10 inhibitors for 24 hours at the minimum concentration found to be effective in inhibiting Trop-2 cleavage, then assayed as indicated. The GM6001 metalloprotease family inhibitor (Calbiochem) was dissolved in DMSO and used at 6.5-13 μM for 24 hours; up to 50 μM GM6001 were found effective. The G1254023X selective ADAM10 inhibitor, dissolved in DMSO, was kindly provided by Dr. A. Ludwig. Cells received two doses (10 μM) every 24 hours for 48 hours; up to 20 μM G1254023X were found effective. Control cells received vehicle alone.
# (§1) Complementary strategies were utilized for siRNA design. Briefly, Tuschl' criteria were applied, i.e. position in the mRNA, GC content, base composition and flanking sequences (Elbashir, Harborth et al. 2001). Invitrogen (maidesigner.invitrogen.com/maiexpress/) provides a proprietary algorithm that performs a statistical analysis of the target sequence, based on sequence composition, nucleotide content and thermodynamic properties, and compares candidates with validated siRNA sequences. The Whitehead Institute web site (jura.wi.mit.edu/bioc/siRNAext/) combines Tuschl' criteria with predictions of binding energies for both sense and antisense siRNAs and with BLAST filtering of cross-hybridizing sequences (Semizarov, Frost et al. 2003). […] Annealed oligos were subcloned into the pSUPER vector, kindly provided by Dr. R. Bemard (Brummelkamp, Bemards et al. 2002), under the control of the RNA polymerase Ill H1 gene promoter. siRNA expression constructs were transiently transfected MTE 4-14 transfectants, and cell growth was measured. siRNA-targeted transcript levels were quantified by real-time PCR. […]
# [3] = test system: MTE 4-14 cells; test: In vitro cell growth of MTE 4-14 transfectants after siRNA-mediated inhibition; assay type: cell-based, murine
# Procedure: C. In vitro growth curves of MTE 4-14 cells transfected with the empty vector, wtTrop-2 or R87A-T88A Trop-2 upon ADAM10 (upper graphs, black,), MMP9 (lower graphs, black,) or control (human CD133, gray), siRNA-mediated inhibition. Bars: SEM. The p value for the only significant difference (ANOVA analysis) is indicated. Stars indicate post-hoc Bonferroni's t test p values (*≤0.05, ***≤0.001).
# Cell transfectants were seeded at 1.5-3.0×10^3 cells/well in 96-well plates (five replica wells per data point). Cell numbers were quantified by staining with crystal violet (Orsulic, Li et al. 2002).
# Cell numbers were normalized against a standard reference curve of two-fold serially diluted cell samples.
# as §1
molecule,measurement,setting,value
Sacituzumab govitecan-hziy,efficacy in patients,[1],effective in patients with metastatic triple-negative breast cancer (TNBC)
CNC(=O)[C@@H](NC(=O)[C@H](CCCc1ccccc1)[C@H](C)N(O)C=O)C(C)(C)C [G1254023X],minimum concentration found to be effective in inhibiting Trop-2 cleavage,"[2]; concentration used on cells, GM6001 for 24 hours, G1254023X two doses every 24 hours for 48 hours",10 µM
same,concentration found effective (up to),[2],up to 20 μM
CNC(=O)[C@H](Cc1c[nH]c2ccccc12)NC(=O)[C@@H](CC(=O)NO)CC(C)C [GM6001],concentration found effective (up to),[2],up to 50 μM
"ADAM10 siRNA: siRNA targeting murine ADAM10 (NM_007399.3, nt 292-309), SEQ ID NO: 57-58, in pSUPER vector (nucleic acid, listed as Mus musculus) sense: GATCCCCAGACATTATGAAGGATTATTTCAAGAGAATAATCCTTCATAATGTCTTTTTTGGAAA antisense: AGCTTTTCCAAAAAAGACATTATGAAGGATTATTCTCTTGAAATAATCCTTCATAATGTCTGGG",ADAM10 band in WB after siRNA treatment,[2]; MTE 4-14/Trop-2 transfectants,disappearance of the corresponding band
same,effect on growth of R87A-T88A or empty vector transfectants,[3]; MTE 4-14 cells transfected with R87A-T88A Trop-2 or empty vector,no effect
same,effect on Trop-2 dependent growth in wtTrop-2 transfectants,"[3]; MTE 4-14 cells transfected with wtTrop-2, in vitro proliferation",overrides Trop-2 dependent growth stimulus
"siRNAs targeting MMP9: control siRNA targeting murine MMP9 (NM_013599, nt 1780-1798), SEQ ID NO: 59-60 (nucleic acid, listed as Mus musculus) sense: GATCCCCCCGCAGACCAAGAGGGTTTTTCAAGAGAAAACCCTCTTGGTCTGCGGTTTTTGGAAA antisense: AGCTTTTCCAAAAACCGCAGACCAAGAGGGTTTTCTCTTGAAAAACCCTCTTGGTCTGCGGGGG",effect on cell proliferation,"[3]; control siRNA, MTE 4-14 transfectants",no effect on cell proliferation

# Reference: patent publication US20240400712A1, “A PLATFORM TO OBTAIN MONOCLONAL ANTIBODIES DIRECTED AGAINST PROCESSED TUMOR-SPECIFIC ANTIGENS” (MEDITERRANEA THERANOSTIC SRL, priority 2020, published 2024)
